Experimental data taken from the supplement of paper PMC10307832.

Legend:
Experiment in all cases: relative viability (nuclei count vs DMSO), 5 days (fraction); higher = more cells survive
[1] = system: COR-L23
How it was run: (§1)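 Lung cancer cell lines in 1536-well plates were dosed by pin tool the day after seeding, either with one drug alone or with a fixed anchor-drug dose plus five library-drug doses (not always all listed) in √10 steps. After 5 days, cells were fixed and their nuclei stained in one step (final 0.05% Triton X-100, 1% formaldehyde, 1 ug/ml Hoechst), then counted on 4× images. Relative viability is the nuclei count in treated wells divided by that in vehicle wells. Values are medians of duplicate plates.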

[2] = system: NCI-H1651
How it was run: as §1

[3] = system: ChaGo-K-1
How it was run: as §1

[4] = system: IA-LM
How it was run: as §1

[5] = system: NCI-H1437
How it was run: as §1

[6] = system: EBC-1
How it was run: as §1

[7] = system: NCI-H1703
How it was run: as §1

[8] = system: ABC-1
How it was run: as §1

[9] = system: SW 1573
How it was run: as §1

[10] = system: Calu-6
How it was run: as §1

[11] = system: NCI-H1299
How it was run: as §1

SMILES: O=c1cc(N2CCOCC2)oc2c(-c3cccc4c3sc3ccccc34)cccc12 + CC(C)C[C@H](NC(=O)[C@H](Cc1ccccc1)NC(=O)c1cnccn1)B(O)O [Bortezomib] (partner 0.002 µM)
- relative viability ([1]; first compound 0.01 µM): 1.03
- relative viability ([1]; first compound 0.03162 µM): 1
- relative viability ([1]; first compound 0.1 µM): 1.09
- relative viability ([1]; first compound 0.3162 µM): 0.904
- relative viability ([1]; first compound 1 µM): 1.03
- relative viability ([2]; first compound 0.01 µM): 0.897
- relative viability ([2]; first compound 0.03162 µM): 0.991
- relative viability ([2]; first compound 0.1 µM): 0.952
- relative viability ([2]; first compound 0.3162 µM): 0.939
- relative viability ([2]; first compound 1 µM): 0.871
- relative viability ([3]; first compound 0.01 µM): 0.64
- relative viability ([3]; first compound 0.03162 µM): 0.915
- relative viability ([3]; first compound 0.1 µM): 0.897
- relative viability ([3]; first compound 0.3162 µM): 1.04
- relative viability ([3]; first compound 1 µM): 0.977
- relative viability ([4]; first compound 0.01 µM): 0.837
- relative viability ([4]; first compound 0.03162 µM): 0.904
- relative viability ([4]; first compound 0.1 µM): 0.784
- relative viability ([4]; first compound 0.3162 µM): 0.896
- relative viability ([4]; first compound 1 µM): 0.74
- relative viability ([5]; first compound 0.01 µM): 0.493
- relative viability ([5]; first compound 0.03162 µM): 0.515
- relative viability ([5]; first compound 0.1 µM): 0.477
- relative viability ([5]; first compound 0.3162 µM): 0.527
- relative viability ([5]; first compound 1 µM): 0.57
- relative viability ([6]; first compound 0.01 µM): 0.569
- relative viability ([6]; first compound 0.03162 µM): 0.538
- relative viability ([6]; first compound 0.1 µM): 0.505
- relative viability ([6]; first compound 0.3162 µM): 0.555
- relative viability ([6]; first compound 1 µM): 0.49
- relative viability ([7]; first compound 0.01 µM): 0.333
- relative viability ([7]; first compound 0.03162 µM): 0.274
- relative viability ([7]; first compound 0.1 µM): 0.356
- relative viability ([7]; first compound 0.3162 µM): 0.403
- relative viability ([7]; first compound 1 µM): 0.296
- relative viability ([8]; first compound 0.01 µM): 0.331
- relative viability ([8]; first compound 0.03162 µM): 0.347
- relative viability ([8]; first compound 0.1 µM): 0.336
- relative viability ([8]; first compound 0.3162 µM): 0.261
- relative viability ([8]; first compound 1 µM): 0.332
- relative viability ([9]; first compound 0.01 µM): 1.32
- relative viability ([9]; first compound 0.03162 µM): 0.985
- relative viability ([9]; first compound 0.1 µM): 1.07
- relative viability ([9]; first compound 0.3162 µM): 1.12
- relative viability ([9]; first compound 1 µM): 0.952
- relative viability ([10]; first compound 0.01 µM): 1.04
- relative viability ([10]; first compound 0.03162 µM): 1.05
- relative viability ([10]; first compound 0.1 µM): 1.01
- relative viability ([10]; first compound 0.3162 µM): 0.969
- relative viability ([10]; first compound 1 µM): 1.03
- relative viability ([11]; first compound 0.01 µM): 1.04
- relative viability ([11]; first compound 0.03162 µM): 1.01
- relative viability ([11]; first compound 0.1 µM): 0.984
- relative viability ([11]; first compound 0.3162 µM): 1.03
- relative viability ([11]; first compound 1 µM): 1.08
